Results published in US5538993A, “Certain tetrahydrocannabinol-7-oic acid derivatives” (priority 1991, dated 1996).

Legend:
[1] = tested on: Picrotoxin induced lethality; test: Protection against picrotoxin induced lethality; assay type: in vivo, Balb/c male mice; details: mice; result in words
Experimental: (§1) The present compounds are active in several tests generally used to indicate neuroprotection.
(§2) Balb/c male mice were administered with the drug 90 min before treatment with NMDA (125 mq/kg) or 120 min before picrotoxin (8 mg/kg) in emulsion, s.c. The survival rate shown in Table VI indicates number of survivors out of total number of animals used.

Solubility = assay type: physicochemical; details: result in words
forebrain ischemia = test: Protection against forebrain ischemia (unilateral occlusion); assay type: in vivo; details: mongolian gerbils, result in words
Excerpt: as §1

NMDA receptor = test: NMDA-blocking response in Xenopus oocytes injected with rat brain RNA; assay type: cell-based; details: upon return to ND 96 solution
Excerpt: The oocyte is the most widely used system for studying the molecular, biophysical. and pharmacological properties of expressed voltage- or transmitter-operated ion channels. This giant cell offers several advantages for this type of studies. It can be readily used for two-electrode voltage clamp studies, translates injected mRNA from different sources and functionally expresses the translated proteins, and it is also readily amenable for intracellular microinjections. Importantly, the recordings of transmitter or voltage-induced currents in a single oocyte are extremely stable and can be done, without rundown, for 2-3 hours; this allows the performance of a full dose-response relation in single oocytes.
Neuronal receptors for excitatory amino acid (EAA) are becoming increasingly important for the understanding of normal and pathological brain function. Quantitative pharmacological studies of EAA receptor/ion channel. complex are difficult to study in neurons. Therefore, Xenopus oocyte injected with brain MRNA is now the preparation of choice.
The response to N-methyl-D-aspartate (NMDA) in oocytes injected with rat brain mRNA was characterized and the effects of HU-245 were studied.
Female Xenopus were anesthetized by immersion in water containing 0.15% tricaine methanesulfonate and a small incision was made in the lower abdomen. Ovary fragments were removed into ND-96. […]

[2] = tested on: strychnine induced lethality; test: Protection against strychnine induced lethality; assay type: in vivo; details: rats; result in words
Excerpt: as §1

peritoneal leukocytes = test: Leukocyte adhesion assay (peritoneal cells after oral dosing); assay type: in vivo, female CD-1 mice; details: cells collected 90 min after dosing; for number of adhering cells: ± S.D
Experimental: Leukocytes are thought to be major contributors to the inflammatory response and their ability in this regard is reflected by their adhesiveness to a variety of substrates [Audette, C. A., et al., ibid.] Sci., 47, 753 (1990)].
The details of the leukocytes adhesion assay have been previously reported [Audette et al., ibid.]. In brief, peritoneal cells from female CD-1 mice (20-25 g) were collected at 90 min following oral administration of the drug or vehicle (50 μl peanut oil). Cells from each treatment group (N=3) were pooled and equal numbers aliquoted into six culture dish wells (1.9 cm^2 area). After incubation for 18-20 hours, non-adhering cells were removed and the remaining cell monolayer quantitated by DNA measurement.

mouse hot plate test = test: Hot plate test for antinociception (55° C.); assay type: in vivo; details: 0.02 mg/kg oral, 90 min before test
Experimental: In the hot plate test for analgesia an aluminum surface was maintained at 55±1° C. by circulating water through passages in the metal. A clear plastic cylinder 18 cm in diameter and 26 cm high was placed on the surface to prevent escape. The end point was taken when the mouse either performed a hind paw lick or jumped off the surface; in no case were the animals kept for more than 30 secs on the plate. Mice were never used more than one time; control values were always measured at 11 a.m. and test values at 2 p.m. The drugs were administered orally 90 min before the hot plate test. The percent change in response time (latency) was calculated by comparing the mean of the control values with the mean of the test values and statistical signficance determined by a paired tetest analysis using software (Statview, 512) from Brainpower, Inc., Calabasas, Calif.

intraocular pressure = test: Reduction of intraocular pressure (anti-glaucoma); assay type: in vivo, rabbits; details: 50 μl drop of a 1% emulsion into rabbit eye
Experimental: Reduction of intraocular pressure in rabbits was determined by the addition of a 50 μl drop of a 1% emulsion of the cannabinoid into the rabbit eye. This test is a measure of anti-glaucoma activity.

cataleptic response = test: Cataleptic effects, ring test; assay type: in vivo, mouse; details: 5 min test period, ± SD
Experimental: The lack of CNS activity for the compounds described herein may be seen from the data shown in Table V. This was measured by the so-called "ring test" [Pertwee, R. G., et al., J. Pharmacol., 46, 753 (1972)] in which the cataleptic effects of cannabinoids can be quantitated. The compounds produced little or no response when compared with the parent drug.
The cataleptic response was measured using the ring test. Mice were placed on a horizontal wire ring 5.5 cm in diameter, which was attached to a 16 cm vertical rod. The hind paws and fore paws were placed at opposite sides of the ring. It is important that the ambient temperature is maintained at 30° C. and that the environment be free of auditory stimuli and bright lights. The criteria for immobility are detailed by Pertwee. The response is calculated as the fraction of time the mouse is immobile over a 5 min. test period. Measurements were always done between 2 and 4 p.m. and the animals were used only once.

[3] = tested on: N-methyl-D-aspartate (NMDA) induced lethality; test: Protection against NMDA induced lethality; assay type: in vivo, Balb/c male mice; details: mice; result in words
Experimental: as §1, §2

In the case of `CCCCCCC(C)(C)c1cc(OC(C)=O)c2c(c1)OC(C)(C)[C@H]1CC=C(C(=O)O)C[C@H]21` [HU-245, (3S, 4S) -THC-DMH-7-oic acid, acetate], the “blocking of picrotoxin induced lethality” value [1] is reported as “blocker”, the “solubility compared with prior art compounds” value (Solubility) is reported as “higher than that of prior art compounds” and the “protection against forebrain ischemia” value (forebrain ischemia) is reported as “shown to protect against forebrain ischemia”. For the same compound, the “reversibility of effect on NMDA response” value (NMDA receptor) was “reversible”, the “protection against strychnine induced lethality” value [2] was “protects against strychnine induced lethality” and the “adhering cells, percent of control” value (peritoneal leukocytes; 0.10 mg/kg oral) was 124% of control. The “number of adhering cells” value (peritoneal leukocytes; 0.10 mg/kg oral) was 0.66 ± 0.08 number of adhering cells × 10^-6, the “number of adhering cells” value (peritoneal leukocytes; 0.50 mg/kg oral) was 0.85 ± 0.08 number of adhering cells × 10^-6 and the “number of adhering cells” value (peritoneal leukocytes; 1.00 mg/kg oral) was 0.30 ± 0.04 number of adhering cells × 10^-6. The “percent change in latency” value (mouse hot plate test) was 10.7%, the “reduction of intraocular pressure” value (intraocular pressure) was “Significant reduction” and the “cataleptic response (fraction of time immobile)” value (cataleptic response; 0.5 mg/kg) was 6.8 ± 2.4. The “cataleptic response (fraction of time immobile)” value (cataleptic response; 1.0 mg/kg) was 12.0 ± 6.0 and the “blocking of NMDA induced lethality” value [3] was “blocker”.
